Test results published in patent US6989389B2, “Aryl ether substituted imidazoquinolines” (3M Innovative Properties Co., priority 2000, dated 2006).

These compounds were tested on Peripheral blood mononuclear cells (PBMC) (assay: Cytokine Induction in Human Cells (in vitro human blood cell system, IFN and TNF secreted into culture media)). Conditions: Homo sapiens, PBMC, lowest concentration found to induce interferon (α), 18 to 24 hours, ELISA, tested 30-0.014 μM, read-out: Lowest Effective Concentration (μM) Interferon.
Type: cell-based
Set-up: key to Lowest Effective Concentration (μM) Tumor Necrosis Factor / Lowest Effective Concentration (μM) Interferon: *: no induction was seen at any of the tested concentrations
Source text: An in vitro human blood cell system is used to assess cytokine induction. Activity is based on the measurement of interferon and tumor necrosis factor (α) (IFN and TNF, respectively) secreted into culture media as described by Testerman et. al. In “Cytokine Induction by the Immunomodulators Imiquimod and S-27609”, Journal of Leukocyte Biology, 58, 365-372 (September, 1995).
Whole blood from healthy human donors is collected by venipuncture into EDTA vacutainer tubes. Peripheral blood mononuclear cells (PBMC) are separated from whole blood by density gradient centrifugation using Histopaque®-1077. Blood is diluted 1:1 with Dulbecco's Phosphate Buffered Saline (DPBS) or Hank's Balanced Salts Solution (HBSS). The PBMC layer is collected and washed twice with DPBS or HBSS and resuspended at 4×10^6 cells/mL in RPMI complete. The PBMC suspension is added to 48 well flat bottom sterile tissue culture plates (Costar, Cambridge, Mass. or Becton Dickinson Labware, Lincoln Park, N.J.) containing an equal volume of RPMI complete media containing test compound.
The compounds are solubilized in dimethyl sulfoxide (DMSO). The DMSO concentration should not exceed a final concentration of 1% for addition to the culture wells. The compounds are generally tested at concentrations ranging from 30-0.014 μM.
The solution of test compound is added at 60 μM to the first well containing RPMI complete and serial 3 fold dilutions are made in the wells. The PBMC suspension is then added to the wells in an equal volume, bringing the test compound concentrations to the desired range (30-0.014 μM). The final concentration of PBMC suspension is 2×10^6 cells/mL. The plates are covered with sterile plastic lids, mixed gently and then incubated for 18 to 24 hours at 37° C. in a 5% carbon dioxide atmosphere.
Following incubation the plates are centrifuged for 10 minutes at 1000 rpm (˜200×g) at 4° C. The cell-free culture supernatant is removed with a sterile polypropylene pipet and transferred to sterile polypropylene tubes. Samples are maintained at −30 to −70° C. until analysis. The samples are analyzed for interferon (α) by ELISA and for tumor necrosis factor (α) by ELISA or IGEN Assay.
Interferon (α) concentration is determined by ELISA using a Human Multi-Species kit from PBL Biomedical Laboratories, New Brunswick, N.J. Results are expressed in pg/mL.
Tumor necrosis factor (α) (TNF) concentration is determined using ELISA kits available from Biosource International, Camarillo, Calif. Alternately, the TNF concentration can be determined by Origen® M-Series Immunoassay and read on an IGEN M-8 analyzer from IGEN International, Gaithersburg, Md. The immunoassay uses a human TNF capture and detection antibody pair from Biosource International, Camarillo, Calif. Results are expressed in pg/mL.
The table below lists the lowest concentration found to induce interferon and the lowest concentration found to induce tumor necrosis factor for each compound.
Work on `Cc1ccc(COC(C)Cn2cnc3c(N)nc4ccccc4c32)cc1` (stereo not shown) [Example 50] yielded a minimal effective concentration of 3.33 µM.
Compound `CC(Cn1cnc2c(N)nc3ccccc3c21)Oc1ccccc1[N+](=O)[O-]` (stereo not shown) [Example 51] has a minimal effective concentration of 0.37 µM.
`CC(Cn1cnc2c(N)nc3ccccc3c21)OCc1ccc(Cl)cc1` (stereo not shown) [Example 52] was tested, and the minimal effective concentration was 1.11 µM.
Work on `CC(Cn1cnc2c(N)nc3ccccc3c21)OCc1ccc(Cl)c(Cl)c1` (stereo not shown) [Example 53] yielded a minimal effective concentration of 1.11 µM.
`CC(Cn1cnc2c(N)nc3ccccc3c21)Oc1ccc([N+](=O)[O-])cc1` (stereo not shown) [Example 54] showed a minimal effective concentration of 0.12 µM.
In the case of `Cc1ccc([N+](=O)[O-])c(OC(C)Cn2cnc3c(N)nc4ccccc4c32)c1` (stereo not shown) [Example 56], the minimal effective concentration is reported as 1.11 µM.
Work on `CC(C)C(COc1ccc([N+](=O)[O-])cc1)n1cnc2c(N)nc3ccccc3c21` (stereo not shown) [Example 58] yielded a minimal effective concentration of 3.33 µM.
Compound `CC(C)C(COCc1ccccc1)n1cnc2c(N)nc3ccccc3c21` (stereo not shown) [Example 59] has a minimal effective concentration of 1.11 µM.
Compound `CC(C)C(COCc1ccc(Cl)cc1)n1cnc2c(N)nc3ccccc3c21` (stereo not shown) [Example 60] has a minimal effective concentration of 1.11 µM.
Compound `CC(C)C(COCc1cccc(Cl)c1)n1cnc2c(N)nc3ccccc3c21` (stereo not shown) [Example 61] has a minimal effective concentration of 3.33 µM.
With `CC(C)C(COCc1ccc(C#N)cc1)n1cnc2c(N)nc3ccccc3c21` (stereo not shown) [Example 64] the minimal effective concentration was 3.33 µM.
`CC(C)C(COCc1cccc(C#N)c1)n1cnc2c(N)nc3ccccc3c21` (stereo not shown) [Example 65] was tested, and the minimal effective concentration was 1.11 µM.
`CC(Cn1cnc2c(N)nc3ccccc3c21)OCc1ccc(C(F)(F)F)cc1` (stereo not shown) [Example 68] gave a minimal effective concentration of 3.33 µM.
`CC(Cn1cnc2c(N)nc3ccccc3c21)OCc1cccc2ccccc12` (stereo not shown) [Example 69] gave a minimal effective concentration of 1.11 µM.
With `CC(COCc1ccccc1)n1cnc2c(N)nc3ccccc3c21` (stereo not shown) [Example 70] the minimal effective concentration was 0.37 µM.
Work on `COC(=O)c1ccc(COCC(C)n2cnc3c(N)nc4ccccc4c32)cc1` (stereo not shown) [Example 71] yielded a minimal effective concentration of 3.33 µM.
`Cc1ccc(COCC(C)n2cnc3c(N)nc4ccccc4c32)cc1` (stereo not shown) [Example 72] gave a minimal effective concentration of 1.11 µM.
`CC(COCc1ccc(Cl)cc1)n1cnc2c(N)nc3ccccc3c21` (stereo not shown) [Example 73] was tested, and the minimal effective concentration was 1.11 µM.
In the case of `CC(COCc1ccc(C(F)(F)F)cc1)n1cnc2c(N)nc3ccccc3c21` (stereo not shown) [Example 74], the minimal effective concentration is reported as 0.37 µM.
For `Cc1cccc(COCCCCn2cnc3c(N)nc4ccccc4c32)c1` [Example 76], the minimal effective concentration was 1.11 µM.
With `Cc1ccc(COCCCCn2cnc3c(N)nc4ccccc4c32)cc1` [Example 77] the minimal effective concentration was 0.12 µM.
Work on `CCC(COCc1ccccc1)n1c(C)nc2c(N)nc3ccccc3c21` (stereo not shown) [Example 81] yielded a minimal effective concentration of 1.11 µM.
`Nc1nc2ccccc2c2c1ncn2COCCOc1ccc([N+](=O)[O-])cc1` [Example 83] was tested, and the minimal effective concentration was 0.37 µM.

Same assay, conditions: Homo sapiens, PBMC, lowest concentration found to induce tumor necrosis factor (α), 18 to 24 hours, ELISA or IGEN assay, tested 30-0.014 μM, read-out: Lowest Effective Concentration (μM) Tumor Necrosis Factor
For `Cc1ccc([N+](=O)[O-])c(OC(C)Cn2cnc3c(N)nc4ccccc4c32)c1` (stereo not shown) [Example 56], the minimal effective concentration was 10 µM.

Same assay, conditions: lowest concentration found to induce tumor necrosis factor (α), 18 to 24 hours, ELISA or IGEN assay, tested 30-0.014 μM
For `Cc1ccc(COC(C)Cn2cnc3c(N)nc4ccccc4c32)cc1` (stereo not shown) [Example 50], the “Lowest Effective Concentration (μM) Tumor Necrosis Factor” value (“Lowest Effective Concentration” below) was “*”.
In the case of `CC(Cn1cnc2c(N)nc3ccccc3c21)Oc1ccccc1[N+](=O)[O-]` (stereo not shown) [Example 51], the “Lowest Effective Concentration” value is reported as “*”.
For `CC(Cn1cnc2c(N)nc3ccccc3c21)OCc1ccc(Cl)cc1` (stereo not shown) [Example 52], the “Lowest Effective Concentration” value was “*”.
For `CC(Cn1cnc2c(N)nc3ccccc3c21)OCc1ccc(Cl)c(Cl)c1` (stereo not shown) [Example 53], the “Lowest Effective Concentration” value was “*”.
With `CC(Cn1cnc2c(N)nc3ccccc3c21)Oc1ccc([N+](=O)[O-])cc1` (stereo not shown) [Example 54] the “Lowest Effective Concentration” value was “*”.
With `CC(C)C(COc1ccc([N+](=O)[O-])cc1)n1cnc2c(N)nc3ccccc3c21` (stereo not shown) [Example 58] the “Lowest Effective Concentration” value was “*”.
With `CC(C)C(COCc1ccccc1)n1cnc2c(N)nc3ccccc3c21` (stereo not shown) [Example 59] the “Lowest Effective Concentration” value was “*”.
For `CC(C)C(COCc1ccc(Cl)cc1)n1cnc2c(N)nc3ccccc3c21` (stereo not shown) [Example 60], the “Lowest Effective Concentration” value was “*”.
`CC(C)C(COCc1cccc(Cl)c1)n1cnc2c(N)nc3ccccc3c21` (stereo not shown) [Example 61] was tested, and the “Lowest Effective Concentration” value was “*”.
With `CC(C)C(COCc1ccc(C#N)cc1)n1cnc2c(N)nc3ccccc3c21` (stereo not shown) [Example 64] the “Lowest Effective Concentration” value was “*”.
For `CC(C)C(COCc1cccc(C#N)c1)n1cnc2c(N)nc3ccccc3c21` (stereo not shown) [Example 65], the “Lowest Effective Concentration” value was “*”.
With `CC(Cn1cnc2c(N)nc3ccccc3c21)OCc1ccc(C(F)(F)F)cc1` (stereo not shown) [Example 68] the “Lowest Effective Concentration” value was “*”.
With `CC(Cn1cnc2c(N)nc3ccccc3c21)OCc1cccc2ccccc12` (stereo not shown) [Example 69] the “Lowest Effective Concentration” value was “*”.
With `CC(COCc1ccccc1)n1cnc2c(N)nc3ccccc3c21` (stereo not shown) [Example 70] the “Lowest Effective Concentration” value was “*”.
`COC(=O)c1ccc(COCC(C)n2cnc3c(N)nc4ccccc4c32)cc1` (stereo not shown) [Example 71] was tested, and the “Lowest Effective Concentration” value was “*”.
For `Cc1ccc(COCC(C)n2cnc3c(N)nc4ccccc4c32)cc1` (stereo not shown) [Example 72], the “Lowest Effective Concentration” value was “*”.
`CC(COCc1ccc(Cl)cc1)n1cnc2c(N)nc3ccccc3c21` (stereo not shown) [Example 73] was tested, and the “Lowest Effective Concentration” value was “*”.
For `CC(COCc1ccc(C(F)(F)F)cc1)n1cnc2c(N)nc3ccccc3c21` (stereo not shown) [Example 74], the “Lowest Effective Concentration” value was “*”.
`Cc1cccc(COCCCCn2cnc3c(N)nc4ccccc4c32)c1` [Example 76] was tested, and the “Lowest Effective Concentration” value was “*”.
`Cc1ccc(COCCCCn2cnc3c(N)nc4ccccc4c32)cc1` [Example 77] was tested, and the “Lowest Effective Concentration” value was “*”.
In the case of `CCC(COCc1ccccc1)n1c(C)nc2c(N)nc3ccccc3c21` (stereo not shown) [Example 81], the “Lowest Effective Concentration” value is reported as “*”.
With `Nc1nc2ccccc2c2c1ncn2COCCOc1ccc([N+](=O)[O-])cc1` [Example 83] the “Lowest Effective Concentration” value was “*”.
